The source of these data is ChEMBL document CHEMBL1201862, “PubChem BioAssay data set” (2004).

Active and inactive are the calls of the source.

Assay [1] has as its target T1, Replicative DNA helicase DnaB (Mycobacterium tuberculosis, UniProt P9WMR3).
T1 sequence (P9WMR3 whole entry): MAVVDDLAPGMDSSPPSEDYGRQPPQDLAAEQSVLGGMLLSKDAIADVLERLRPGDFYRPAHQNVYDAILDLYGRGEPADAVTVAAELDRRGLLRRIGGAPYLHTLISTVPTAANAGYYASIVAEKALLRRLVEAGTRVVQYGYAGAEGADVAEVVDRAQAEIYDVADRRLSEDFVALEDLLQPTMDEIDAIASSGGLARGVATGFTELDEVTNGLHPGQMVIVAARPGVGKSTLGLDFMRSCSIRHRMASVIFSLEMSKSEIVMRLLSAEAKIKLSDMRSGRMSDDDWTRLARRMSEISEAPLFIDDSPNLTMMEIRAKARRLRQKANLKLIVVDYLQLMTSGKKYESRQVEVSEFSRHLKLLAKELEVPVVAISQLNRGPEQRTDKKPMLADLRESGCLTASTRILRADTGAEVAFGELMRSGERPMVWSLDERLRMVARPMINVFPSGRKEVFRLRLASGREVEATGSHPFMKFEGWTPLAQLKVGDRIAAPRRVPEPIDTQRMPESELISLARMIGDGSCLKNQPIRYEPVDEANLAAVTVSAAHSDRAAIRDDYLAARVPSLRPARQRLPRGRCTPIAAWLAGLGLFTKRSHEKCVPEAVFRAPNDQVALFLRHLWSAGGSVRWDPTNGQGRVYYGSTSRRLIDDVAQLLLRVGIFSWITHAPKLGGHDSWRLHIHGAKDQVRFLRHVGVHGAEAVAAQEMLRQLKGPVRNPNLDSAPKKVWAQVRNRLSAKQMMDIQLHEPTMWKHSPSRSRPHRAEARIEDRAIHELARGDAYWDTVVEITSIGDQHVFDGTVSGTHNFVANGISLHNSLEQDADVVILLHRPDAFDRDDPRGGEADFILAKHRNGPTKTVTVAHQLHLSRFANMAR
Nature of the assay: DnaB intein splicing inhibitors, dose response, biochemical, cell-free fluorescence (AID 449749). It counts as functional.

In assay [2] the target is T2, Protein RecA (Mycobacterium tuberculosis, UniProt P9WHJ3).
T2 sequence (P9WHJ3 whole entry): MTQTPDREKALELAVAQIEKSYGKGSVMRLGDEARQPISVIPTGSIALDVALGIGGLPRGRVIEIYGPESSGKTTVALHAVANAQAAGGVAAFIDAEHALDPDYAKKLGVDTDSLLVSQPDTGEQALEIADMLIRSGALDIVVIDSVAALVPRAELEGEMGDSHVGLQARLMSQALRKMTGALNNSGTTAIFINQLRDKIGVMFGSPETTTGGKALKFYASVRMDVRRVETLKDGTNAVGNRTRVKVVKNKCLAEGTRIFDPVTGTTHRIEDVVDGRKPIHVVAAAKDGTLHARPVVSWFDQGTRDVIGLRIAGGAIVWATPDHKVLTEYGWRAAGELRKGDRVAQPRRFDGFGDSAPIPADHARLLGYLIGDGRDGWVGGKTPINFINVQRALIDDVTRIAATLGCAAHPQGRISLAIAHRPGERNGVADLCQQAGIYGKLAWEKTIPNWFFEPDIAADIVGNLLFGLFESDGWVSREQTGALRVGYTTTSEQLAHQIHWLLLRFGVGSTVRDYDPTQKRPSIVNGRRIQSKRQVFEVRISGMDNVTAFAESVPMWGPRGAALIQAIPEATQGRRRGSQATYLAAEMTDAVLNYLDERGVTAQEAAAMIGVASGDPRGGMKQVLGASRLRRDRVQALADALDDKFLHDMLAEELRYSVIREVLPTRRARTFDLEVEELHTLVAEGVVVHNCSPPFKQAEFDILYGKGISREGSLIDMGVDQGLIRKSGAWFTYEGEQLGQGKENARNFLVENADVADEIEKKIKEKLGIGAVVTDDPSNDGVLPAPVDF
In words: Fluorescence Cell-Free Homogeneous Dose Retest to Identify Inhibitors of RecA-Intein Splicing Activity. [Related pubchem assays (depositor defined):AID2097, AID2223, AID489010, AID492950]. It counts as functional.

Assay [3] has as its target T3, Heat shock factor protein 1 (Mus musculus, UniProt P38532).
T3 sequence (P38532 whole entry): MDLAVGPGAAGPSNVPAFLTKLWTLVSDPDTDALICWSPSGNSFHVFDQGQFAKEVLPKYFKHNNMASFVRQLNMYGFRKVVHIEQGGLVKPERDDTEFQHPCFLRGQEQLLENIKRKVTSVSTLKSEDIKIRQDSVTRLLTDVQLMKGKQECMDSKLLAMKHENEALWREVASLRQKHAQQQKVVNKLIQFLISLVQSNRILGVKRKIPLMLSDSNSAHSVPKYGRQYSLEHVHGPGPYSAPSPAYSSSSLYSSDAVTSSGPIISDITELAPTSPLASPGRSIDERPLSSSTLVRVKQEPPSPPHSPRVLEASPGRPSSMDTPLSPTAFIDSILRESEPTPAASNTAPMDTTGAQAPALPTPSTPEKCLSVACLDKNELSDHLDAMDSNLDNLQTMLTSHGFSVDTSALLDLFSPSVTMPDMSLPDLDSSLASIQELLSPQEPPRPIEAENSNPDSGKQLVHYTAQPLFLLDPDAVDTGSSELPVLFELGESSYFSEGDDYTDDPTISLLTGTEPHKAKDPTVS
Nature of the assay: inhibition of MG132-induced HSE-luciferase signal, confirmation, cell-based, NIH3T3, luminescence, dose retest (AID 2382).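 Further: NIH3T3 fibroblasts with HSF1-driven luciferase reporter stressed by proteasome inhibitor MG132; luminescence from HSF1-driven luciferase expression after 8 hours of MG132 stress.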 It counts as functional.

The nature of assay [4]: Luminescence Cell-Based Dose Confirmation HTS to Identify Activators of 5'UTR Stem-Loop Driven Alpha-Synuclein mRNA Translation in H4 Neuroglioblastoma Cells. [Related pubchem assays: 1829 (Project Summary), 1814 (Primary HTS)]. The format is functional.
Assay [5] relates to H4. Nature of the assay: Luminescence Cell-Based Dose Response HTS to Identify Activators of 5'UTR Stem-Loop Driven Prion Protein mRNA Translation in H4 Neuroglioblastoma Cells. [Related pubchem assays: 1829 (Project Summary), 1814 (Primary HTS)]. It counts as functional. The note with it: Homo sapiens.
Assay [6] is described as follows: Luminescence Cell-Based Dose Response HTS to Identify Activators of Luciferase Translation or Activity in H4 […] Cells. [Related pubchem assays: 1829 (Project Summary), 1814 (Primary HTS)]. The format is functional.
Assay [7] concerns INS1. In words: beta cell apoptosis inhibitors, cytokine rescue, dose response, luminescence, retest (AID 449756).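 Further: cell death triggered by IL-1 beta plus TNF-alpha plus IFN-gamma mixture; protective hits raise ATP signal compared with cytokine alone wells.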 The format is functional, cell-based. The note with it: Rattus norvegicus.
Assay [8] has as its target T4, Corticotropin-releasing factor receptor 2/Corticotropin-releasing factor-binding protein (Homo sapiens, UniProt P24387+Q13324).
T4 sequence (Q13324 whole entry): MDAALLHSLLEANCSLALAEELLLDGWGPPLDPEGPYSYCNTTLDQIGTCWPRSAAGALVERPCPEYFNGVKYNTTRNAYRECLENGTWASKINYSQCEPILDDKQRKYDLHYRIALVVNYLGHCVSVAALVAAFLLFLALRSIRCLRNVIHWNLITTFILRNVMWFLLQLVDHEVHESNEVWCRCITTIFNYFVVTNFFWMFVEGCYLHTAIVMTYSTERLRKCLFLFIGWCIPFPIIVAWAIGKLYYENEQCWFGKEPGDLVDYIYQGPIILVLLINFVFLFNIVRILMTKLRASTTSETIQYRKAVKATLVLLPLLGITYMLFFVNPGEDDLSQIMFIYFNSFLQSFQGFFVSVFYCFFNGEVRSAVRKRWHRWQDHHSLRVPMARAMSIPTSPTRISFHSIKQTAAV
T4 sequence (P24387 whole entry): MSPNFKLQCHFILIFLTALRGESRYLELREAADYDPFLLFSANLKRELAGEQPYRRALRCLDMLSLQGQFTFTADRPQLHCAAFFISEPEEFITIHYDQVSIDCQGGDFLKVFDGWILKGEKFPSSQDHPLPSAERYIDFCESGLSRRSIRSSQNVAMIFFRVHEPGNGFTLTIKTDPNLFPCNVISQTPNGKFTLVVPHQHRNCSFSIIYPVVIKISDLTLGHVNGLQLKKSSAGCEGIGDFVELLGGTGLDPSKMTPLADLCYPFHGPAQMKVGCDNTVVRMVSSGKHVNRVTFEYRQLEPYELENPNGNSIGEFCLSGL
Nature of the assay: activators of CRF receptor 2 with binding protein – uHTS hits, confirmation (AID 602473). The format is functional. The conditions noted are these: read-out: EC50_Mean.

In assay [9] the target is T4, Corticotropin-releasing factor receptor 2/Corticotropin-releasing factor-binding protein. In words: Dose Response confirmation of uHTS hits for small molecule antagonists of the CRF-binding protein and CRF-R2 receptor complex. The format is functional. The note with it: read-out: IC50_Mean.
Assay [10] addresses Cytochrome P450 3A4 (Homo sapiens, UniProt P08684).
Assay [11] deals with T5, Cytochrome P450 1A2 (Homo sapiens, UniProt P05177).
T5 sequence (P05177 whole entry): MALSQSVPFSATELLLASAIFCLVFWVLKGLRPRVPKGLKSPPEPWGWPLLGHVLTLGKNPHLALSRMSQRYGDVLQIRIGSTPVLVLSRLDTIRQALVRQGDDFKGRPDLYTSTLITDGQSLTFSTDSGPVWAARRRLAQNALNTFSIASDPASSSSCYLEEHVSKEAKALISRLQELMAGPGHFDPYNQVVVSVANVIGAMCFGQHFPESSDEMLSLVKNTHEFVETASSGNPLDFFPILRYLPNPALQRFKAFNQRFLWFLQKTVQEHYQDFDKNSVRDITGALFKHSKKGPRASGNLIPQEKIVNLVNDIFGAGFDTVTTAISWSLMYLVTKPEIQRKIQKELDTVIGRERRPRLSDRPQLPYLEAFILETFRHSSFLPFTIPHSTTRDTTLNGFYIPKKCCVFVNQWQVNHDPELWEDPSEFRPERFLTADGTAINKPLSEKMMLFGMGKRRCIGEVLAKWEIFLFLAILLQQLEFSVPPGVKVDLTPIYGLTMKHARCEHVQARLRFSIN

The target in assay [12] is Cytochrome P450 2C19 (Homo sapiens, UniProt P33261). Nature of the assay: Cytochrome panel assay with activity outcomes. Panel member name: p450-cyp2c19 Compounds with AC50 equal or less than 10 uM are considered active. It counts as functional. The conditions noted are these: read-out: AC50.
Chain of Cytochrome P450 2C19 (P33261 whole entry): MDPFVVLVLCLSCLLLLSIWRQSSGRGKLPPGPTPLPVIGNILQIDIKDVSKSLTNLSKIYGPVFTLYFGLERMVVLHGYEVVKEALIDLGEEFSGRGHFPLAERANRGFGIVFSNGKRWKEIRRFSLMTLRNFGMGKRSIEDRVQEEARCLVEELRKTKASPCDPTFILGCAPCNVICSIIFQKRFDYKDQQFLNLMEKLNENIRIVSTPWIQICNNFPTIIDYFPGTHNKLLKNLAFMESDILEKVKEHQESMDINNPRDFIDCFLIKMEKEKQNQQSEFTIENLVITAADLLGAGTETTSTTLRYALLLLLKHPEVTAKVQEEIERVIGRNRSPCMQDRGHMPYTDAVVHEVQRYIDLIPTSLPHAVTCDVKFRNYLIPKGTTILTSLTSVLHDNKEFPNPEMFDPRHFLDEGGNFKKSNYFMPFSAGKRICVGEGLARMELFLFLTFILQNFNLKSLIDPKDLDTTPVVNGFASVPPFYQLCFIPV
Assay [13] addresses Cytochrome P450 2C9 (Homo sapiens, UniProt P11712).

Chain of Cytochrome P450 2C9 (P11712 whole entry): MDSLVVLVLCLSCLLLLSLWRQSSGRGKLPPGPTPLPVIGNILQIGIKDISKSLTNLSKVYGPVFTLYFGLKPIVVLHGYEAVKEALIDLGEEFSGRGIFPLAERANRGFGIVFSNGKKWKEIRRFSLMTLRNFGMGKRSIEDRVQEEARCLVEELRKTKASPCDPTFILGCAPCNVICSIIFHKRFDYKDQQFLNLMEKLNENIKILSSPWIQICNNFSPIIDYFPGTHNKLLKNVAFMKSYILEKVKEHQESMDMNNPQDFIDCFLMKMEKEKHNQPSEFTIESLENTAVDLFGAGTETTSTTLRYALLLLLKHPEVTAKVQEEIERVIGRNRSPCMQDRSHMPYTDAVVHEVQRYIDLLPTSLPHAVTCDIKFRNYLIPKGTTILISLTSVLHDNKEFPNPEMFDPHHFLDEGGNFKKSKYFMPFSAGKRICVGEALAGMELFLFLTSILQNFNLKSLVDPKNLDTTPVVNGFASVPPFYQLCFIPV
Chain of Cytochrome P450 3A4 (P08684 whole entry): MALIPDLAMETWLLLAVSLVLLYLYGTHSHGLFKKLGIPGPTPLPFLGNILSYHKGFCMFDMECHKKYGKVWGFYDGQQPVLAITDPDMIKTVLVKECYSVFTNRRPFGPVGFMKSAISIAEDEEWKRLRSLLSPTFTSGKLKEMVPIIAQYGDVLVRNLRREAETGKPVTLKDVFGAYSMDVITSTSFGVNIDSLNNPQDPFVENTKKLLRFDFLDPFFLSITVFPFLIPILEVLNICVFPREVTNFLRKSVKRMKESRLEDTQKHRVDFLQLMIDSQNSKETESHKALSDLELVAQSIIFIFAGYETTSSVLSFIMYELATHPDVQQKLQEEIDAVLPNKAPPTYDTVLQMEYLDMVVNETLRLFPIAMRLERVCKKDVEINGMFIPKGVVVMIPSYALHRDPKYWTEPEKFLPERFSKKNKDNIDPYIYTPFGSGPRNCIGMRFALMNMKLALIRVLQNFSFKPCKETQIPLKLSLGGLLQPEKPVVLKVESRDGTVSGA

With `CCOc1ccccc1N1CCN(C(=O)c2ccc(-c3ccc(OC(C)=O)cc3)cc2)CC1`, the AC50 (usually the concentration at which the activity in the assay is half-maximal) in assay [1] is 2.31 µM (active). For the same molecule, the EC50 in [2] was 58.4 µM (active). For the molecule `CC(=O)Nc1ccc(SCC(=O)N2CCN(S(=O)(=O)c3ccccc3)CC2)cc1`, the EC50 in assay [3] was > 195 µM (not active). Still for that read-out and setting: with `O=C(Nc1ccccc1NC(=O)c1csnn1)c1csnn1` the figure was > 195 µM (not active); with `CC(C)c1nnc(NC(=O)C2CCN(C(=O)c3ccco3)CC2)s1`, > 195 µM (not active). For `COc1cc(OC)cc(C2C(C#N)=C(N)Oc3[nH]nc(-c4cccnc4)c32)c1` (stereo not drawn), the AC50 in assay [1] was 18 µM (active). Also, the EC50 in assay [2] was 2.13 µM (active).

Consider `C=CCn1c(SCC(=O)N2CCc3ccccc3C2)nc2sc(C)c(C)c2c1=O`, for which the EC50 in assay [3] was > 195 µM (not active). `Cc1cc(C)nc(N=C(N)Nc2ccc3c(c2)OCCO3)n1`: the EC50 in [3] is > 195 µM (not active). Regarding `CC(=O)c1ccc(NC(=O)c2cccc(S(=O)(=O)N3CCN(C)CC3)c2)cc1`, the EC50 in assay [4] is 15.5 µM (active); in [5] it was 20.7 µM (active); in assay [6], 40.6 µM (active). For the molecule `COc1ccc(-c2ccnc(SCC(=O)N3CCN(c4ccccc4)CC3)n2)cc1`, the AC50 in assay [7] was > 260 µM (inactive). In addition, the EC50 in assay [8] was > 53 µM (inactive). Further, in assay [9], the IC50 is > 47.1 µM (inactive). Consider `O=C(c1ccc(Cl)cc1)n1cnc2ccccc21`, for which the AC50 in assay [1] is 7.49 µM (active). In addition, in [2], the EC50 is 8.13 µM (active). For `Cc1cccc(N(C(=O)c2nsc(Cl)c2Cl)C(C(=O)NC2CCCC2)c2ccc(O)cc2)c1` (stereo not drawn), the results for the EC50 in assay [4], in assay [5] and in [6] were 0.548 µM (active), > 120 µM (not active) and 1.09 µM (active), respectively.

`Cc1ccc(C(=O)N2CCCC(Nc3ccc(F)cc3)C2)cc1C` (stereo not drawn): the EC50 in assay [3] is recorded as > 195 µM (not active). As to `c1ccc(Cc2nnc3sc(-c4cccs4)nn23)cc1`, in assay [3], the EC50 is > 195 µM (not active). Regarding `COc1ccc(N2CCN(c3ccc(NC(=O)NN)cc3)CC2)cc1`, the EC50 in assay [3] was > 195 µM (not active).

In the case of `Cc1nn(-c2ccccc2)c(C)c1NC(=O)COc1ccc(Br)cc1Cl`, the AC50 in assay [7] is 34.2 µM (active). As for `O=C(Cn1nnc2ccccc21)NNC(=S)NC1CCCCC1`, the EC50 in assay [3] is on record as > 195 µM (not active). Consider `CCOC(=O)Cc1n[nH]c2c1C(c1ccoc1)C(C#N)=C(N)O2` (stereo not drawn), for which the AC50 in assay [1] is 18.4 µM (active). In addition, the EC50 in assay [2] was 3.42 µM (active). Turning to `COC(=O)c1ccc(Cn2nnc3c(O)nc(C4CCN(S(=O)(=O)c5ccc(F)cc5)CC4)nc32)cc1`, the EC50 in [3] was > 195 µM (not active). Still for that read-out and setting: then `CCOC(=O)c1ccc(Nc2[nH]cnc3ncnc2-3)cc1`, with > 195 µM (not active). Turning to `COc1cccc(OC(=O)CSc2nnc(-c3ccccc3Br)o2)c1`, in assay [1], the AC50 is 3.09 µM (active). In addition, the EC50 in [2] is 5.7 µM (active).

Regarding `COc1ccc(-n2c3c(c(=O)[nH]c2=O)C(C(F)(F)F)(C(F)(F)F)NC(CC(C)C)=N3)cc1`, the AC50 is 17.8 µM (inconclusive) in [10], 39.8 µM (inconclusive) in assay [11], 10 µM (inconclusive) in assay [12] and 28.2 µM (inconclusive) in assay [13]. Regarding `CNCC(O)CN(c1ccccc1)c1ccccc1` (stereo not drawn), in assay [1], the AC50 is 34.3 µM (active). For the same molecule, the EC50 in [2] is 10.8 µM (active). `COc1ccc(/C(O)=C\C=N\c2cc(C)on2)c(OC)c1`: the EC50 in assay [3] is listed as > 195 µM (not active).
